How the values were obtained:
[1] = test system: MV-4-11; experiment: Cell viability assay (resazurin, leukemia cell lines), 72 h growth inhibition; assay type: cell-based; conditions: Homo sapiens, MV4-11, MV-4-11 cells
From the text: (§1) Compounds from Example 1 may be subjected to a standard MTT (3-(4,5-dimethylthiazol-2-yl)-2,5-diphenyltetrazolium bromide) and resazurin assays on solid tumour cell lines and leukemia cell lines, respectively, as previously reported (Wang S et al., J Med Chem 47:1662-1675, 2004 and Diab S e al. CheMedChem 9:962-972, 2014). Compound concentrations required to inhibit 50% of cell growth (GI50) can be calculated using non-linear regression analysis.

[2] = test system: HCT-116; experiment: Cell viability assay (MTT, solid tumour cell lines), 72 h growth inhibition; assay type: cell-based; conditions: Homo sapiens, HCT-116 cells
From the text: as §1

[3] = target: T1, CDK8/CycC (Homo sapiens, UniProt P49336); experiment: Radiometric protein kinase assay (33PanQinase Activity Assay, ProQinase); assay type: biochemical; conditions: 1.0 μM ATP, 1.0 μg/50 μL substrate RBER-IRStide, duplicate measurements, read-out: CDK8 Kinase inhibition IC50
T1 construct: purchased ProQinase GmbH, Freiburg, Germany
Protocol: The kinase activity of CDK8/CycC was measured using a radiometric protein kinase assay (33PanQinase® Activity Assay) by ProQinase GmbH, Freiburg, Germany, with the protocols shown at www.proqinase.com/sites/default/files/public/uploads/WildtypeProfiler/radiometric_assay_v05_2012_manual.pdf. IC50 determination (8.3 nM with 1.0 μM ATP and 1.0 μg/50 μL of substrate RBER-IRStide) was performed as duplicate measurements and calculated using Quattro Workflow V3.1.1 (Quattro Research GmbH, Germany). Apparent inhibition constants (Ki) values were calculated from Km (ATP) and IC50 values for the respective kinases.

T1 sequence (P49336 whole entry): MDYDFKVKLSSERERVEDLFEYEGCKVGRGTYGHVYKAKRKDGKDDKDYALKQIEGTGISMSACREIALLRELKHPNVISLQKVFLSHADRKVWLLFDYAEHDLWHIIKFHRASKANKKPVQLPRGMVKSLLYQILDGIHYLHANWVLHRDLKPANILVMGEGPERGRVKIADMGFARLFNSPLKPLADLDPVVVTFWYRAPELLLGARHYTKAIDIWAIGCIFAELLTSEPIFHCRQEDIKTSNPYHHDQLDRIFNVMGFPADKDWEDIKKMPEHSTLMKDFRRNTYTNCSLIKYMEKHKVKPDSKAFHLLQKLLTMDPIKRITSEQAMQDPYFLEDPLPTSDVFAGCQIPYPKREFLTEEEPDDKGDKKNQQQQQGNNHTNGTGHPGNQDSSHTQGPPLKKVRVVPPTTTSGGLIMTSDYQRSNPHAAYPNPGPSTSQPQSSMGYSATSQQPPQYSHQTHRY
T1 sequence (P24863 whole entry partner): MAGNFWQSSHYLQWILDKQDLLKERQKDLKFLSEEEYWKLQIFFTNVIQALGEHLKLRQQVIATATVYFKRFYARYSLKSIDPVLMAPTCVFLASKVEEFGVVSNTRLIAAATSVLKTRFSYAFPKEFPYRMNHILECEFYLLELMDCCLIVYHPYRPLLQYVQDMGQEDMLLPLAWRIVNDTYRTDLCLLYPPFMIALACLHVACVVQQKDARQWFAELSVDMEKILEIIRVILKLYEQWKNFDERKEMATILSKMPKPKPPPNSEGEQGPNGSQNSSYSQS

Row | SMILES | GI50 [1] | GI50 [2] | IC50 [3]
1 | Cc1nc(NC(=O)Nc2cccc(Cl)c2)sc1-c1ccnc(N(C)C)n1 [Compound 47, 1-(3-Chlorophenyl)-3-(5-(2-(dimethylamino)pyrimidin-4-yl)-4-methylthiazol-2-yl)urea] | 5280 ± 150 nM | 5770 ± 420 nM | 38 nM
2 | CNc1nccc(-c2sc(NC(=O)Nc3ccccc3F)nc2C)n1 [Compound 3, 1-(2-Fluorophenyl)-3-(4-methyl-5-(2-(methylamino)pyrimidin-4-yl)thiazol-2-yl)urea] | 952 ± 200 nM | 1590 ± 60 nM | 42 nM
3 | CNc1nccc(-c2sc(NC(=O)Nc3ccc(F)c(C(F)(F)F)c3)nc2C)n1 [Compound 25, 1-(4-Fluoro-3-(trifluoromethyl)phenyl)-3-(4-methyl-5-(2-(methylamino)-pyrimidin-4-yl)thiazol-2-yl)urea] | 2230 ± 140 nM | 5850 ± 1140 nM | 13 nM
4 | CNc1nccc(-c2sc(NC(=O)Nc3ccc(Cl)cc3)nc2C)n1 [Compound 43] | 1520 ± 800 nM | 5960 ± 440 nM | 9 nM
5 | Cc1nc(NC(=O)Nc2cccc(C(F)(F)F)c2)sc1-c1ccnc(N)n1 [Compound 51, 1-(5-(2-Aminopyrimidin-4-yl)-4-methylthiazol-2-yl)-3-(3-(trifluoromethyl)phenyl)urea] | 5710 ± 590 nM | 4320 ± 410 nM | 60 nM
6 | CNc1nccc(-c2sc(NC(=O)Nc3cccc(SC(F)(F)F)c3)nc2C)n1 [Compound 22, 1-(4-Methyl-5-(2-(methylamino)-pyrimidin-4-yl)thiazol-2-yl)-3-(3-((trifluoromethyl)thio)phenyl)urea] | 4630 ± 1560 nM | 4310 ± 750 nM | 20 nM
7 | CNc1nccc(-c2sc(NC(=O)Nc3ccc(C(F)(F)F)c(C(F)(F)F)c3)nc2C)n1 [Compound 27, 1-(3,4-Bis(trifluoromethyl)phenyl)-3-(4-methyl-5-(2-(methylamino)-pyrimidin-4-yl)thiazol-2-yl)urea] | 4160 ± 800 nM | 5640 ± 320 nM | 53 nM
8 | CNc1nccc(-c2sc(NC(=O)Nc3ccccc3OC)nc2C)n1 [Compound 4, 1-(2-Methoxyphenyl)-3-(4-methyl-5-(2-(methylamino)pyrimidin-4-yl)thiazol-2-yl)urea] | 457 ± 180 nM | 537 ± 140 nM | 49 nM
9 | CNc1nccc(-c2sc(NC(=O)Nc3ccc(C)cc3)nc2C)n1 [Compound 44, 1-(4-Methyl-5-(2-(methylamino)pyrimidin-4-yl)thiazol-2-yl)-3-(p-tolyl)urea] | 2600 ± 460 nM | 2370 ± 50 nM | 7 nM
10 | Cc1nc(NC(=O)Nc2cccc(C(F)(F)F)c2)sc1-c1ccnc(N(C)C)n1 [Compound 46, 1-(5-(2-(Dimethylamino)pyrimidin-4-yl)-4-methylthiazol-2-yl)-3-(3-(trifluoromethyl)phenyl)urea] | 5500 ± 490 nM | 35000 ± 11800 nM | 41 nM
11 | CNc1nccc(-c2sc(NC(=O)Nc3cc(C(F)(F)F)ccc3C(F)(F)F)nc2C)n1 [Compound 9, 1-(2,5-Bis(trifluoromethyl)phenyl)-3-(4-methyl-5-(2-(methylamino)-pyrimidin-4-yl)thiazol-2-yl)urea] | 526 ± 40 nM | 519 ± 160 nM | 41 nM
12 | Cc1ccc(NC(=O)Nc2nc(C)c(-c3ccnc(N(C)C)n3)s2)cc1Cl [Compound 48, 1-(3-Chloro-4-methylphenyl)-3-(5-(2-(dimethylamino)pyrimidin-4-yl)-4-methylthiazol-2-yl)urea] | 5910 ± 180 nM | 8340 ± 600 nM | 46 nM
13 | CNc1nccc(-c2sc(NC(=O)Nc3ccc(C(F)(F)F)c(Cl)c3)nc2C)n1 [Compound 5, 1-(3-Chloro-4-(trifluoromethyl)-phenyl)-3-(4-methyl-5-(2-(methylamino)pyrimidin-4-yl)thiazol-2-yl)urea] | 3810 ± 580 nM | 7100 ± 960 nM | 25 nM
14 | CNc1nccc(-c2sc(NC(=O)Nc3cccc(OC(F)(F)F)c3)nc2C)n1 [Compound 18, 1-(4-Methyl-5-(2-(methylamino)-pyrimidin-4-yl)thiazol-2-yl)-3-(3-(trifluoromethoxy)phenyl)urea] | 5000 ± 630 nM | 4290 ± 523 nM | 25 nM
15 | CNc1nccc(-c2sc(NC(=O)Nc3ccc(CN4CCOCC4)c(Cl)c3)nc2C)n1 [Compound 31, 1-(3-Chloro-4-(morpholinomethyl)phenyl)-3-(4-methyl-5-(2-(methylamino)-pyrimidin-4-yl)thiazol-2-yl)urea] | 945 ± 50 nM | 6830 ± 1010 nM | 22 nM
16 | CNc1nccc(-c2sc(NC(=O)Nc3ccc(CN4CCOCC4)c(C(F)(F)F)c3)nc2C)n1 [Compound 37, 1-(4-Methyl-5-(2-(methylamino)-pyrimidin-4-yl)thiazol-2-yl)-3-(4-(morpholinomethyl)-3-(trifluoromethyl)phenyl)urea] | 68 ± 30 nM | 7840 ± 390 nM | 9 nM
17 | CNc1nccc(-c2sc(NC(=O)Nc3ccc(C(F)(F)F)c(F)c3)nc2C)n1 [Compound 28, 1-(3-Fluoro-4-(trifluoromethyl)phenyl)-3-(4-methyl-5-(2-(methylamino)-pyrimidin-4-yl)thiazol-2-yl)urea] | 3280 ± 640 nM | 772 ± 250 nM | 26 nM
18 | CCN1CCN(Cc2ccc(NC(=O)Nc3nc(C)c(-c4ccnc(NC)n4)s3)cc2C(F)(F)F)CC1 [Compound 33, 1-(4-((4-Ethylpiperazin-1-yl)methyl)-3-(trifluoromethyl)phenyl)-3-(4-methyl-5-(2-(methylamino)-pyrimidin-4-yl)thiazol-2-yl)urea] | < 1 nM | 457 ± 30 nM | 10 nM
19 | CNc1nccc(-c2sc(NC(=O)Nc3ccc(C)c(C(F)(F)F)c3)nc2C)n1 [Compound 26, 1-(4-Methyl-3-(trifluoromethyl)-phenyl)-3-(4-methyl-5-(2-(methylamino)pyrimidin-4-yl)thiazol-2-yl)urea] | 2560 ± 490 nM | 5100 ± 660 nM | 15 nM
20 | CNc1nccc(-c2sc(NC(=O)Nc3ccc(OC)cc3)nc2C)n1 [Compound 45, 1-(4-Methoxyphenyl)-3-(4-methyl-5-(2-(methylamino)pyrimidin-4-yl)thiazol-2-yl)urea] | 756 ± 120 nM | 3040 ± 530 nM | 11 nM
21 | CNc1nccc(-c2sc(NC(=O)Nc3ccc(C)c(Cl)c3)nc2C)n1 [Compound 29, 1-(3-Chloro-4-methylphenyl)-3-(4-methyl-5-(2-(methylamino)-pyrimidin-4-yl)thiazol-2-yl)urea] | 2160 ± 1170 nM | 7770 ± 430 nM | 13 nM

Further lines, results first:

Row | GI50 [1] | GI50 [2] | IC50 [3] | SMILES
22 | 2110 ± 1640 nM | 6400 ± 270 nM | 7 nM | CNc1nccc(-c2sc(NC(=O)Nc3cccc(Br)c3)nc2C)n1 [Compound 12, 1-(3-Bromophenyl)-3-(4-methyl-5-(2-(methylamino)pyrimidin-4-yl)thiazol-2-yl)urea]
23 | 3900 ± 1100 nM | 2770 ± 210 nM | 6 nM | CNc1nccc(-c2sc(NC(=O)Nc3cccc(C)c3)nc2C)n1 [Compound 13, 1-(4-Methyl-5-(2-(methylamino)pyrimidin-4-yl)thiazol-2-yl)-3-(m-tolyl)urea]
24 | 565 ± 40 nM | 6250 ± 610 nM | 8 nM | CNc1nccc(-c2sc(NC(=O)Nc3cccc(C#N)c3)nc2C)n1 [Compound 15, 1-(3-Cyanophenyl)-3-(4-methyl-5-(2-(methylamino)pyrimidin-4-yl)thiazol-2-yl)urea]
25 | 1480 ± 1320 nM | 693 ± 30 nM | 33 nM | CNc1nccc(-c2sc(NC(=O)Nc3cccc(Cl)c3)nc2C)n1 [Compound 11, 1-(3-Chlorophenyl)-3-(4-methyl-5-(2-(methylamino)pyrimidin-4-yl)thiazol-2-yl)urea]
26 | 3510 ± 790 nM | 5970 ± 723 nM | 15 nM | CNc1nccc(-c2sc(NC(=O)Nc3cccc(C(C)C)c3)nc2C)n1 [Compound 17, 1-(3-Isopropylphenyl)-3-(4-methyl-5-(2-(methylamino)pyrimidin-4-yl)thiazol-2-yl)urea]
27 | 585 ± 30 nM | 5080 ± 820 nM | 10 nM | CNc1nccc(-c2sc(NC(=O)Nc3cccc([N+](=O)[O-])c3)nc2C)n1 [Compound 14, 1-(4-Methyl-5-(2-(methylamino)pyrimidin-4-yl)thiazol-2-yl)-3-(3-nitrophenyl)urea]
28 | 639 ± 120 nM | 1510 ± 60 nM | 36 nM | CNc1nccc(-c2sc(NC(=O)Nc3ccccc3)nc2C)n1 [Compound 1, 1-(4-Methyl-5-(2-(methylamino)pyrimidin-4-yl)thiazol-2-yl)-3-phenylurea]
29 | 3350 ± 190 nM | 6130 ± 910 nM | 9 nM | CNc1nccc(-c2sc(NC(=O)Nc3cccc(SC)c3)nc2C)n1 [Compound 21, 1-(4-Methyl-5-(2-(methylamino)-pyrimidin-4-yl)thiazol-2-yl)-3-(3-(methylthio)phenyl)urea]
30 | 939 ± 60 nM | 4530 ± 980 nM | 6 nM | CNc1nccc(-c2sc(NC(=O)Nc3cccc(OC(F)F)c3)nc2C)n1 [Compound 20, 1-(3-(Difluoromethoxy)phenyl)-3-(4-methyl-5-(2-(methylamino)-pyrimidin-4-yl)thiazol-2-yl)urea]

— US11325900B2, “5-(pyrimidin-4-yl)thiazol-2-yl urea derivatives as therapeutic agents” (AUCENTRA HOLDINGS PTY LTD, priority 2018, dated 2022)
